Measured values reported in patent US10479814B2, “Adenosine receptor activation reagent and the uses of thereof” (Zhejiang Subtropical Crops Research Institute, priority 2014, dated 2019).

Tests used:
A1 receptor = details: cited from earlier work; for A1 selectivity: according to document record (Jacobson 1992); for selectivity to the A1 receptor (in words): existing A1 agonists
[1] = tested on: pentylenetetrazole induced convulsion; assay: pentylenetetrazole induced convulsion in mouse; format: in vivo; details: antagonist ip 10 min before HEA 40 mg/kg, DPCPX 2 mg/kg, ZM241385 1 and 5 mg/kg
Experimental: Male ICR mouse, 18˜22 g; purchased from Animal Experiment Center of Wenzhou Medical University. Before experiment, animals were adapted to environment for at least 5 days. Kept at 25 °C, food and water were freely fed. Based on the weight, the healthy male ICR mice were randomly divided into control group (1% DMSO, ip), model group, CCPA group (0.1 mg·kg^−1, ip), HEA group (15 mg/kg, 40 mg/kg, 60 mg/kg), DPCPX group (2 mg·kg^−1, ip), ZM241385 group (1 mg·kg^−1, 5 mg·kg^−1, ip), DPCPX+HEA (2 mg·kg^−1+40 mg/kg, ip) group and ZM241385+HEA (1 mg·kg^−1+40 mg/kg, 5 mg·kg^−1+40 mg/kg ip) group.
The survival time and mortality after convulsion were respectively recorded for each group.

Compound	A1 selectivity (A1 receptor)	selectivity to the A1 receptor (in words) (A1 receptor)	effect of antagonist on the anti-convulsion action of the HEA [1]	effect of antagonist on the anti-convulsion action of the HEA ([1]; listed as Zm241385)
OC[C@H]1O[C@@H](n2cnc3c(NC4CCCC4)nc(Cl)nc32)[C@H](O)[C@@H]1O [CCPA]	1500 fold	strong selectivity to the A1 receptor		
OC[C@H]1O[C@@H](n2cnc3c(NC4CCCCC4)ncnc32)[C@H](O)[C@@H]1O [CHA]		strong selectivity to the A1 receptor		
OC[C@H]1O[C@@H](n2cnc3c(NC4CCCC4)ncnc32)[C@H](O)[C@@H]1O [CPA]		strong selectivity to the A1 receptor		
OC[C@H]1O[C@@H](n2cnc3c(N[C@H]4CC5CCC4C5)ncnc32)[C@H](O)[C@@H]1O (stereo partly shown) [S-ENBA]	up to 4700 fold			
Nc1nc(NCCc2ccc(O)cc2)nc2nc(-c3ccco3)nn12 [ZM241385]			no significant effect on the anti-convulsion effect of the HEA	no significant effect on the anti-convulsion action of the HEA
